# Laboratory results taken from PMC9570042, “Impairment of Nucleolin Activity and Phosphorylation by a Trachylobane Diterpene from Psiadia punctulata in Cancer Cells” (International Journal of Molecular Sciences, 2022).
# Tested on: hNcl
# Assay: hNcl distribution in cell compartments (nucleus, cytosol, membrane)
# Format: cell-based, human
# Settings: HeLa cells, 20 μM, 4 h
# Procedure: The observed decrement of phosphorylated hNcl (p-hNcl) seems to be attributable to the overall decrease in its levels rather than to a modification of its cellular distribution.
# For cytosol and membrane protein extraction, the HeLa cells were seeded at 1.5 × 10^6 in 100 mm culture dishes and incubated with oridonin (5 μM) or compound 12 (20 μM) for 4 h at 37 °C. The cells were harvested in PBS and centrifuged at 4 °C for 5 min at 600× g. Subsequently, the cell pellets were resuspended in lysis buffer (20 mM Tris HCl pH 7.4, 250 mM sucrose, 1 mM dithiothreitol (DTT), protease inhibitors, and 1 mM EDTA in water), sonicated (5 s pulse–9 s pause for 2 min, amplitude 42%) and then centrifuged at 4 °C for 10 min at 5000× g. The obtained supernatants were ultra-centrifuged at 4 °C for 1 h at 100,000× g, and cytosolic extracts were obtained. Each resulting pellet was resuspended in a lysis buffer and ultracentrifuged at 4 °C for 1 h at 100,000× g. The pellets were then resuspended in 250 μL solubilization buffer (20 mM Tris HCl pH 7.4, 1 mM DTT, 1 mM EDTA, and 1% Triton X-100 in water) and left overnight on an orbital shaker at 4 °C. After that, the solution was centrifuged at 4 °C for 30 min at 50,000× g, and membrane proteins were obtained. […]
compound,measurement,value
"CC1(CO)CCCC2(C)C1C(O)CC13CC4C(CC12)C4(C(=O)O)C3 (stereo not drawn) [compound 12, 6,19-dihydroxy-ent-trachiloban-17-oic acid]",distribution of hNcl in the different cell compartments,did not show dramatic variations
